Data published in patent publication US20080015224A1, “Nitroxide superoxide dismutase mimetics to treat extracellular superoxide dismutase deficiencies” (priority 2006, published 2008).
Entries after “also recorded” stand apart in the source; their conditions may differ. Where no end group is shown, it is not given here.

How the values were obtained:
[1] = tested on: O2−. generated by xanthine plus xanthine oxidase; assay: Inhibition of O2−. generated by xanthine-xanthine oxidase in vitro (SOD mimetic activity, lucigenin chemiluminescence); format: biochemical; settings: for Maximum inhibition, %: O2−. generated by xanthine-xanthine oxidase in vitro, means ± SE, 5 studies; for O2−. generated by a xanthine-xanthine oxidase reaction extinguished: tested in PBS at 10^−4 M
Description: (§1) The SOD activities of Ns were evaluated in vitro for their efficacy in dampening O2^−. generated by xanthine (25 μmol/l) plus xanthine oxidase (9 IU/ml). Their lipid solubility was assessed by shaking the Ns in a 50:50 mixture of PBS (Ambion, Austin, Tex.) and chloroform (CHCl3; EM Science, Gibbstown, N.J.), taking an aliquot of the PBS phase, evaporating the CHCl3phase to dryness, reconstituting it in PBS, and assessing the SOD activities in the two solutions. O2^−. was assessed by chemiluminescence with 5 μM lucigenin (AutoLumatPlus LB 953; EG&G, Berthold, Germany). The reduction in the stable peak value for chemiluminescence for each N, relative to vehicle, defined the SOD mimetic activity.
SOD activity by the nitroxides was assessed in vitro (Table 1). […] The ratio of the activity that partitioned into CHCl3 compared with PBS was examined.

[2] = tested on: spontaneously hypertensive rat (SHR); assay: Acute antihypertensive response (MAP, HR) to graded intravenous doses in anesthetized SHR; format: in vivo; settings: for acute change in MAP and HR: graded intravenous doses (nitroxides 17-270 μmol/kg; SOD 34-540 U/kg); for ED50 (sensitivity) for changes in MAP and HR: intravenous
Description: Experiments were approved by the Georgetown University Animal Care and Use Committee. Male SHR weighing 250-350 g (Taconic, Germantown, N.Y.) were anesthetized with thiobutabarbital (Inactin; Sigma, St. Louis, Mo.) (10 mg/100 g) after halothane (Halocarbon Laboratories, River Edge, N.J.) induction. Rats received 0.9% NaCl at 2 ml/h IV up to the time of receiving drugs to maintain euvolemia. A femoral artery was cannulated with polyethelene (PE)-50 tubing connected to a digital blood pressure analyzer (Micro-Med, Louisville, Ky.). Animals were equilibrated for 45 min. Thereafter, a nitroxide (17 μmol/kg) was infused intravenously over 10 s. The mean arterial pressure (MAP) and heart rate (HR) were recorded over the first 5 min and at 10 and 15 min. This was followed by doses of 54, 72, 174, and 270 μmol/kg under similar conditions. The same protocol was followed with each nitroxide: T, 4-oxo-tempo (OT), 4-amino-tempo (AT), 3-carboxy-peroxyl (3-CTPY) (Aldrich, Milwaukee, Wis.), 3-carbomyl-proxyl (3-CP) (Sigma), and 4-trimethylammonium-2,2,6,6,-tetramethylpiperidine-1-oxyl iodide (CAT-1) (Molecular Probes, Eugene, Oreg.) (FIG. 3). Doses of bovine Cu/Zn SOD (MW 32,500; Oxis Research, Portland, Oreg.) were selected that had equivalent SOD mimetic activity in vitro to the doses of T used for intravenous studies: 34, 110, 140, 260, 350, and 540 U/kg. SOD injection followed a similar protocol to the nitroxides and was compared with vehicle-injected rats. Additional rats received injections of previously boiled SOD as a further control group. Six rats were studied in each group.
The mean±SE changes in MAP and HR were calculated from the individual dose-response relations. The responsiveness was the maximum effect, and the sensitivity was the expected dose for ED50. Data were analyzed by ANOVA with post hoc testing by the Dunnett test, where appropriate. Statistical significance was taken as P<0.05.

[3] = measured previously in the literature; cited from earlier work
cell membranes = settings: cited from earlier work
[4] = Lipid solubility: partition of SOD activity between CHCl3 and PBS; format: physicochemical; settings: 50:50 PBS and chloroform
Description: as §1

[5] = tested on: mesenteric resistance arteries (MRAs) from EC-SOD −/− and +/+ mice; assay: Contraction of isolated mesenteric resistance arteries (myograph)
Description: FIG. 19: Responses of mouse isolated mesenteric resistance vessles to endothelin-1: comparison of EC-SOD +/+ with −/−. (A) Contraction to endothelin-1, (B) Superoxide production with endothelin-1. Mean±SEM values (n=6-8 per group). Response to endothelin-1 in vessels incubated for 20 min with vehicle, tempol (10^−4 M), PEG-SOD (100 units·ml^−1), and catalase (300 units·ml^−1). Compared to vehicle, ***, p<0.005.
(§2) Reactive oxygen spice (ROS) and endothelin-1 (ET-1) contribute to angiotensin-induced hypertension. We used isolated mesenteric resistance arteries (MRAs) from EC-SOD knockout (−/−) mice (n=10) and EC-SOD wild type (+/+) mice (n=10), as a model to investigate the hypothesis that microvascular ET-1 and superoxide anion (O2.^−) interact to enhance contractility. Tension and O2.^− were quantitated in real time in dihydroethidium (DHE)-loaded MRAs in a myograph equipped with a dual-emission photon detection fluorescence system to measure ethidium (Eth): DHE ratio (E/D) as a direct readout of O2.^− activity. […] PEG-SOD normalized augmented ET-1 contraction (64±4% vs 71±3%; p=ns) and prevent an increase in E/D ratio in MRAs from −/− (0.6±0.5 vs 0.5±0.8, p=ns). In summary, ET-1 generates microvascular O2.^− that enhances its vasoconstrictive action.

[6] = tested on: mesenteric resistance arteries (MRAs) from EC-SOD −/− and +/+ mice; assay: Superoxide as ethidium:DHE ratio (E/D) in dihydroethidium-loaded mesenteric resistance arteries
Description: as §2
A current study contrasts the responses to endothelin-1 (ET-1) in mesenteric resistance vessels from EC-SOD (−/−) and (+/+) mice. […] Parallel studies of vascular superoxide in dihydroethidium-loaded vessels show enhanced conversion to ethidium, indicating enhanced superoxide formation, in vessels from EC-SOD −/−mice. […] We conclude that in the model system of SOD deficiency caused by gene deletion of EC-SOD in the mouse, tempol can correct enhanced contractions and enhanced oxidative stress. It is thereby envisioned as being effective in preventing hypertension and cardiovascular disease.

[7] = cited from earlier work
EC-SOD +/+ and −/− mice [8] = assay: MAP of conscious mice by telemetry during subcutaneous Ang II infusion; format: in vivo, mouse; settings: for MAP during Ang II infusion: 400 ng/kg per minute subcutaneously, 2 weeks; for Change in MAP with Ang II (mmHg) / MAP on day 12 of Ang II (mmHg): conscious, telemetry
Description: For the first series, mice were instrumented with indwelling radiotelemeters (DSI) connected to a cather in a carotid artery and placed within the abdomen 2 weeks before placement of osmotic minipumps as described previously (Kawada N, et al. 2002 J Am Soc Nephrol 13 :2860-2868). Mice were anesthetized with isoflurane (1.0 to 1.5% in 100% O2) before insertion of telemeters and allowed to recover from the surgery for 12 days before the start of BP recording. Basal recordings of MAP and heart rate (HR) were measured continuously by telemetry for 3 days. Thereafter, mice were anesthetized with isoflurane for insertion of osmotic minipumps (Direct Corp) to deliver Ang II (400 ng^−1 kg^−1 per minute) or vehicle (Veh) subcutaneously for 2 weeks. An additional group received a higher pressor rate of Ang II infusion (1000 ng/kg^−1 min^−1, SC). The mean values for 24-hour periods are reported. For subsequent series, mice were prepared without placement of telemeters and Ang II was infused only at the slow pressor rate.

EC-SOD +/+ and −/− mice [9] = assay: MAP of anesthetized mice (direct arterial cannulation) during Ang II infusion; format: in vivo, mouse; settings: 400 ng·kg^−1·min^−1
Description: Cannulae were placed in the jugular vein (for infusion of fluids and renal function markers), the femoral artery (for direct measurement of MAP and HR), and the bladder (for the collection of urine). A tracheostomy was performed to permit free, uninterrupted respiration of room air. [^3H]-Inulin was infused at 0.1 μCi^−1 hr^−1 for the measurement of glomerular filtration rate. [^14C]-Para-amino hippurate (PAH) was infused at 0.2 μCi^−1 hr^−1. Blood was collected from the femoral artery and renal vein at the end of the collection period to measure hematocrit and renal PAH extraction. Renal plasma flow (RPF) was calculated from the clearance of PAH factored by its renal extraction. Renal blood flow was calculated from RPF factored by (1-hematocrit). Renal vascular resistance (RVR) was calculated from MAP factored by RBF. In separate groups, plasma was obtained, and the aorta and kidneys were harvested and prepared for further analysis.

[10] = EC-SOD (+/+), 400 ng·kg^−1·min^−1
[11] = EC-SOD (+/+), 1000 ng·kg^−1·min^−1
[12] = EC-SOD (−/−), 400 ng·kg^−1·min^−1
[13] = EC-SOD (−/−), 1000 ng·kg^−1·min^−1

Compound: CC1(C)CC(N)CC(C)(C)N1[O] [AT, 4-amino-2,2,6,6-tetramethylpiperidine-1-oxyl]
- Maximum inhibition, % [1]: 88 ± 2 %
- O2−. generated by a xanthine-xanthine oxidase reaction extinguished [1]: 88%
- maximal reduction in MAP (comparison between compounds) ([2]; graded intravenous doses): greatest reductions in MAP
- acute change in MAP and HR [2]: graded reductions; also recorded: decreased MAP and HR acutely
- ED50 (sensitivity) for changes in MAP and HR [2]: highest ED50s
- redox midpoint potential E1/2 [3]: 820 mV

Compound: CC1(C)CC([N+](C)(C)C)CC(C)(C)N1[O].[I-] [CAT-1, 4-trimethylammonium-2,2,6,6,-tetramethylpiperidine-1-oxyl iodide]
- Maximum inhibition, % [1]: 42 ± 2 %
- O2−. generated by a xanthine-xanthine oxidase reaction extinguished [1]: significantly lower fraction
- maximal reduction in MAP (comparison between compounds) ([2]; graded intravenous doses): significantly more modest reductions
- acute change in MAP and HR [2]: graded reductions; also recorded: decreased MAP and HR acutely
- ED50 (sensitivity) for changes in MAP and HR [2]: lowest ED50
- redox midpoint potential E1/2 [3]: significantly higher values still
- permeation of cells (cell membranes): does not permeate cells

Compound: CC1(C)CC(C(N)=O)C(C)(C)N1[O] (stereo not shown) [Compound 3-CP, 3-carbomoyl-proxyl]
- Maximum inhibition, % [1]: 82 ± 1 %
- O2−. generated by a xanthine-xanthine oxidase reaction extinguished [1]: significantly lower fraction
- acute change in MAP and HR [2]: ineffective; also recorded: did not; also recorded: does not reduce BP in vivo

Compound: CC1(C)CC(=O)CC(C)(C)N1[O] [OT, 4-oxo-tempo]
- Maximum inhibition, % [1]: 62 ± 2 %
- O2−. generated by a xanthine-xanthine oxidase reaction extinguished [1]: significantly lower fraction
- ratio of the activity that partitioned into CHCl3 compared with PBS (partition ratio) [4]: greatest partition ratio
- maximal reduction in MAP (comparison between compounds) ([2]; graded intravenous doses): significantly more modest reductions
- reduction in HR (comparison between compounds) ([2]; graded intravenous doses): smaller
- acute change in MAP and HR [2]: graded reductions; also recorded: decreased MAP and HR acutely
- ED50 (sensitivity) for changes in MAP and HR [2]: highest ED50s
- redox midpoint potential E1/2 [3]: 913 mV

Compound: CNC[C@H](O)c1cccc(O)c1 [Phenylephrine]
- Phenylephrine-induced contractions, EC-SOD −/− versus +/+ ([5]; MRAs from both groups): similar
- E/D ratio with phenylephrine ([6]; MRAs from both groups): did not change

Compound: Cu/Zn SOD: bovine Cu/Zn SOD (MW 32,500; Oxis Research)
- delay of MAP lowering versus vehicle ([2]; graded intravenous doses): 90 to 110 min
- acute change in MAP and HR ([2]; listed as SOD): no acute effect; also recorded: did not
- injected SOD associated with the kidney ([7]; 45 min after injection): ~10%
- plasma half time ([7]; after intravenous administration): 6 min

Compound: angiotensin II (DRVYIHPF; Angiotensin-2; UniProt P01019 25-32, looked up) [Ang II, pressor peptide infused subcutaneously by osmotic minipump]
- MAP during Ang II infusion (EC-SOD +/+ and −/− mice [8]; EC-SOD +/+): 125±3 mm Hg
- MAP during Ang II infusion (EC-SOD +/+ and −/− mice [8]; EC-SOD −/−): 124±3 mm Hg
- Change in MAP with Ang II (mmHg) (EC-SOD +/+ and −/− mice [8]; [10]): +24.4 ± 3.45 mmHg
- MAP on day 12 of Ang II (mmHg) (EC-SOD +/+ and −/− mice [8]; [10]): 134.6 ± 3.3 mmHg
- Change in MAP with Ang II (mmHg) (EC-SOD +/+ and −/− mice [8]; [11]): +35.7 ± 6.5 mmHg
- MAP on day 12 of Ang II (mmHg) (EC-SOD +/+ and −/− mice [8]; [11]): 149.1 ± 4.3 mmHg
- Change in MAP with Ang II (mmHg) (EC-SOD +/+ and −/− mice [8]; [12]): +16.7 ± 4.42 mmHg
- MAP on day 12 of Ang II (mmHg) (EC-SOD +/+ and −/− mice [8]; [12]): 132.5 ± 4.1 mmHg
- Change in MAP with Ang II (mmHg) (EC-SOD +/+ and −/− mice [8]; [13]): +30.7 ± 3.3 mmHg
- MAP on day 12 of Ang II (mmHg) (EC-SOD +/+ and −/− mice [8]; [13]): 149.9 ± 5.4 mmHg
- MAP on day 12 of Ang II (mmHg) (EC-SOD +/+ and −/− mice [9]; EC-SOD (+/+)): 92.1 ± 3.0 mmHg
- MAP on day 12 of Ang II (mmHg) (EC-SOD +/+ and −/− mice [9]; EC-SOD (−/−)): 98.4 ± 2.6 mmHg

Compound: endothelin-1 (CSCSSLMDKECVYFCHLDIIW; ends and bridges not checked; cysteine pairing not given here; UniProt P05305 53-73, looked up) [ET-1, vasoconstrictor peptide used to contract mesenteric resistance arteries]
- ET-1 induced contraction ([5]; MRAs from EC-SOD +/+ mice): 66±5%
- ET-1 induced contraction ([5]; MRAs from EC-SOD −/− mice): 100±3%
- E/D ratio (ethidium:DHE) with ET-1 ([6]; MRAs from EC-SOD +/+ mice): 0.5±0.8
- E/D ratio (ethidium:DHE) with ET-1 ([6]; MRAs from EC-SOD −/− mice): 3.7±0.5
